Source: PubChem BioAssay AID326 (DTP/NCI, 2004)
“And” between values parts separate entries of the source, which are not always exact repeats. Equal values may be shown once. Toxic doses and inconclusive results are not listed. Rule for the calls: active = survival T/C of 150% or more; inactive = T/C below 125% in these data. Numbered stars: 1 amine (or outer) side, 2 acyl side, 3 side chain; on linkers, the order of the positions; unused ones are H or OH. Bridge positions count the residues as written; N and C are the ends. Square brackets hold non-standard residues; d marks the D form. Peptide text beside a SMILES is read from it. I, II: the chains in the order shown. Actinocin(9to1) = Cc1c2oc3c(C)ccc(C(=O)[*:1])c3nc-2c(C(=O)[*:2])c(N)c1=O; aThr = C[C@H](O)[C@H](N)C(=O)O; NMeV = CN[C@H](C(=O)O)C(C)C; Sar = CNCC(=O)O

System: CD2F1 mice, P388/DHAQ leukemia ip, median survival T/C
Assay: NCI In Vivo Anticancer Drug Screen. Data for tumor model P388 Leukemia resistant to Dihydroxy Anthracenedione; NSC 299195 (intraperitoneal) in CD2F1 (CDF1) mice
Details: endpoint: median survival time, higher = longer survival
Description: The antitumor activity of compounds was measured in mice bearing transplantable tumors. Survival or tumor size were measured and the results are expressed as the measurement made in the treated group (T) divided by the measurement made in the vehicle treated control group (C). The tumor model used in this assay is P388 Leukemia resistant to Dihydroxy Anthracenedione; NSC 299195 (intraperitoneal) in CD2F1 (CDF1) mice

[1] = dose: 32.4 mg/kg/injection, schedule: Q04DX002 (ip), vehicle: saline
[2] = dose: 38.9 mg/kg/injection, schedule: Q04DX003 (ip), vehicle: saline
[3] = dose: 54.0 mg/kg/injection, schedule: Q04DX002 (ip), vehicle: saline
[4] = dose: 64.8 mg/kg/injection, schedule: Q04DX003 (ip), vehicle: saline
[5] = dose: 108.0 mg/kg/injection, schedule: Q04DX003 (ip), vehicle: saline

Measured: T/C

O=P1(N(CCCl)CCCl)NCCCO1 (stereo not given)
active: [1] 189 % of control | [2] 224 % of control | dose: 43.2 mg/kg/injection, schedule: Q04DX002 (ip), vehicle: saline 203 % of control | [3] 255 % of control | [4] 353 % of control | dose: 72.0 mg/kg/injection, schedule: Q04DX002 (ip), vehicle: saline 201 % of control | dose: 90.0 mg/kg/injection, schedule: Q04DX002 (ip), vehicle: saline 336 % of control | [5] 463 % of control | dose: 120.0 mg/kg/injection, schedule: Q04DX002 (ip), vehicle: saline 223 % of control | dose: 150.0 mg/kg/injection, schedule: Q04DX002 (ip), vehicle: saline 200 % of control | dose: 200.0 mg/kg/injection, schedule: Q04DX002 (ip), vehicle: saline 380 % of control

O=C(O)CCCc1ccc(N(CCCl)CCCl)cc1
inactive: dose: 2.59 mg/kg/injection, schedule: Q04DX002 (ip), vehicle: saline with Tween-80 100 % of control | dose: 4.32 mg/kg/injection, schedule: Q04DX002 (ip), vehicle: saline with Tween-80 101 % of control | dose: 7.2 mg/kg/injection, schedule: Q04DX002 (ip), vehicle: saline with Tween-80 100 % of control | dose: 12.0 mg/kg/injection, schedule: Q04DX002 (ip), vehicle: saline with Tween-80 100 % of control | dose: 20.0 mg/kg/injection, schedule: Q04DX002 (ip), vehicle: saline with Tween-80 106 % of control

CC(=O)[C@]1(O)Cc2c(O)c3c(c(O)c2[C@@H](OC2CC(N)C(O)C(C)O2)C1)C(=O)c1c(O)cccc1C3=O (stereo not given in full)
inactive: dose: 0.32 mg/kg/injection, schedule: Q04DX003 (ip), vehicle: saline 113 % of control | dose: 0.54 mg/kg/injection, schedule: Q04DX003 (ip), vehicle: saline 111 % of control | dose: 1.5 mg/kg/injection, schedule: Q04DX003 (ip), vehicle: saline 110 % of control | dose: 2.0 mg/kg/injection, schedule: Q04DX003 (ip), vehicle: saline 96 % of control | dose: 2.5 mg/kg/injection, schedule: Q04DX003 (ip), vehicle: saline 95 % of control

CC(=O)N(C)c1ccc(Nc2cc(C)[nH]c3ccc4ncnc4c23)cc1
inactive: dose: 19.4 mg/kg/injection, schedule: Q04DX002 (ip), vehicle: saline 98 % of control | dose: 20.7 mg/kg/injection, schedule: Q04DX002 (ip), vehicle: saline 98 % of control | [1] 94 % of control | dose: 34.6 mg/kg/injection, schedule: Q04DX002 (ip), vehicle: saline 91 % of control | [3] 116 % of control | dose: 57.6 mg/kg/injection, schedule: Q04DX002 (ip), vehicle: saline 94 % of control | dose: 96.0 mg/kg/injection, schedule: Q04DX002 (ip), vehicle: saline 108 % of control | dose: 160.0 mg/kg/injection, schedule: Q04DX002 (ip), vehicle: saline 98 % of control

CO[C@@]12[C@H](COC(N)=O)C3=C(C(=O)C(C)=C(N)C3=O)N1C[C@@H]1N[C@@H]12
inactive: dose: 1.08 mg/kg/injection, schedule: Q04DX002 (ip), vehicle: saline 95 % of control | dose: 1.8 mg/kg/injection, schedule: Q04DX002 (ip), vehicle: saline 108 % of control | dose: 3.0 mg/kg/injection, schedule: Q04DX002 (ip), vehicle: saline 103 % of control | dose: 5.0 mg/kg/injection, schedule: Q04DX002 (ip), vehicle: saline 117 % of control | dose: 7.5 mg/kg/injection, schedule: Q04DX003 (ip), vehicle: saline 108 % of control
active: dose: 1.62 mg/kg/injection, schedule: Q04DX003 (ip), vehicle: saline 166 % of control | dose: 2.7 mg/kg/injection, schedule: Q04DX003 (ip), vehicle: saline 172 % of control | dose: 4.5 mg/kg/injection, schedule: Q04DX003 (ip), vehicle: saline 168 % of control

CC(CN1CC(=O)NC(=O)C1)N1CC(=O)NC(=O)C1 (stereo not given)
inactive: [4] 101 % of control | [5] 104 % of control | dose: 180.0 mg/kg/injection, schedule: Q04DX003 (ip), vehicle: saline 107 % of control | dose: 500.0 mg/kg/injection, schedule: Q04DX003 (ip), vehicle: saline 123 % of control

CO[C@H](C(=O)[C@@H](O)[C@@H](C)O)[C@@H]1Cc2cc3cc(OC4CC(OC5CC(O)C(O)C(C)O5)C(O)C(C)O4)c(C)c(O)c3c(O)c2C(=O)[C@H]1OC1CC(OC2CC(OC3CC(C)(O)C(O)C(C)O3)C(O)C(C)O2)C(O)C(C)O1 (stereo not given in full)
inactive: dose: 0.22 mg/kg/injection, schedule: Q01DX005 (ip), vehicle: clinical formulation 112 % of control | dose: 0.36 mg/kg/injection, schedule: Q01DX005 (ip), vehicle: clinical formulation 110 % of control | dose: 0.6 mg/kg/injection, schedule: Q01DX005 (ip), vehicle: clinical formulation 120 % of control | dose: 1.0 mg/kg/injection, schedule: Q01DX005 (ip), vehicle: clinical formulation 123 % of control

C[n+]1ccc(Nc2ccc(NC(=O)c3ccc(Nc4cc[n+](C)c5ccc(N)cc45)cc3)cc2)cc1
inactive: dose: 1.94 mg/kg/injection, schedule: Q04DX003 (ip), vehicle: water 114 % of control | dose: 3.24 mg/kg/injection, schedule: Q04DX003 (ip), vehicle: water 116 % of control | dose: 5.4 mg/kg/injection, schedule: Q04DX003 (ip), vehicle: water 116 % of control

CCN(CC)CCNc1ccc(C)c2sc3ccccc3c(=O)c12
inactive: dose: 16.2 mg/kg/injection, schedule: Q01DX005 (ip), vehicle: saline 106 % of control | dose: 19.4 mg/kg/injection, schedule: Q01DX005 (ip), vehicle: saline 100 % of control | dose: 19.44 mg/kg/injection, schedule: Q01DX005 (ip), vehicle: saline 106 % of control | dose: 27.0 mg/kg/injection, schedule: Q01DX005 (ip), vehicle: saline 107 % of control | dose: 32.4 mg/kg/injection, schedule: Q01DX005 (ip), vehicle: saline 102 % of control and 113 % of control | [2] 106 % of control | dose: 45.0 mg/kg/injection, schedule: Q01DX005 (ip), vehicle: saline 121 % of control | dose: 54.0 mg/kg/injection, schedule: Q01DX005 (ip), vehicle: saline 106 % of control and 124 % of control | [4] 104 % of control | dose: 90.0 mg/kg/injection, schedule: Q01DX005 (ip), vehicle: saline 112 % of control | [5] 120 % of control | dose: 125.0 mg/kg/injection, schedule: Q01DX005 (ip), vehicle: saline 105 % of control

COc1cc([C@@H]2c3cc4c(cc3[C@@H](OC3OC5COC(C)OC5C(O)C3O)[C@H]3COC(=O)[C@H]23)OCO4)cc(OC)c1O (stereo not given in full)
active: dose: 18.0 mg/kg/injection, schedule: Q04DX003 (ip), vehicle: clinical formulation 155 % of control | dose: 18.0 mg/kg/injection, schedule: Q04DX003 (ip), vehicle: water 153 % of control | dose: 30.0 mg/kg/injection, schedule: Q04DX003 (ip), vehicle: clinical formulation 162 % of control | dose: 50.0 mg/kg/injection, schedule: Q04DX003 (ip), vehicle: clinical formulation 166 % of control
inactive: dose: 7.78 mg/kg/injection, schedule: Q04DX003 (ip), vehicle: water 123 % of control | dose: 13.0 mg/kg/injection, schedule: Q04DX003 (ip), vehicle: water 124 % of control | dose: 30.0 mg/kg/injection, schedule: Q04DX003 (ip), vehicle: water 105 % of control

Cc1c2oc3c(C)ccc(C(=O)N[C@@H]4C(=O)N[C@H](C(C)C)C(=O)N5CCC[C@H]5C(=O)N(C)CC(=O)N(C)[C@@H](C(C)C)C(=O)O[C@H]4C)c3nc-2c(C(=O)N[C@@H]2C(=O)N[C@H](C(C)C)C(=O)N3CCC[C@H]3C(=O)N(C)CC(=O)N(C)[C@@H](C(C)C)C(=O)O[C@H]2C)c(N)c1=O (I: [aThr][dV]P[Sar][NMeV] / II: [aThr][dV]P[Sar][NMeV]; ester I:1-I:C, II:1-II:C; linker I:N-II:N via Actinocin(9to1))
active: dose: 108.0 micrograms/kg/injection, schedule: Q04DX003 (ip), vehicle: saline + alcohol 152 % of control and 154 % of control | dose: 130.0 micrograms/kg/injection, schedule: Q04DX003 (ip), vehicle: saline + alcohol 152 % of control | dose: 180.0 micrograms/kg/injection, schedule: Q04DX003 (ip), vehicle: saline + alcohol 157 % of control and 176 % of control | dose: 216.0 micrograms/kg/injection, schedule: Q04DX003 (ip), vehicle: saline + alcohol 200 % of control | dose: 300.0 micrograms/kg/injection, schedule: Q04DX003 (ip), vehicle: saline + alcohol 192 % of control and 201 % of control | dose: 360.0 micrograms/kg/injection, schedule: Q04DX003 (ip), vehicle: saline + alcohol 206 % of control | dose: 500.0 micrograms/kg/injection, schedule: Q04DX003 (ip), vehicle: saline + alcohol 209 % of control | dose: 600.0 micrograms/kg/injection, schedule: Q04DX003 (ip), vehicle: saline + alcohol 227 % of control
